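Test compounds were applied to cells in 96-well plates for 48 hours at 5 doses. The concentration for full growth arrest is given as TGI.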
How the values were obtained:
Test in all cases: NCI tumour cell line growth inhibition, 48 h
P388 leukemia = tested on: P388 leukemia
DMS 273 small cell lung = tested on: DMS 273 small cell lung
HOP-18 NSCLC = tested on: HOP-18 NSCLC
DLD-1 colon = tested on: DLD-1 colon
SNB-78 CNS = tested on: SNB-78 CNS
SN12K1 renal = tested on: SN12K1 renal
M19-MEL melanoma = tested on: M19-MEL melanoma
DMS 114 small cell lung = tested on: DMS 114 small cell lung
P388/ADR leukemia = tested on: P388/ADR leukemia
KM20L2 colon = tested on: KM20L2 colon
LXFL 529 NSCLC = tested on: LXFL 529 NSCLC

| Compound | TGI (P388 leukemia) [µM] | TGI (DMS 273 small cell lung) [µM] | TGI (HOP-18 NSCLC) [µM] | TGI (DLD-1 colon) [µM] | TGI (SNB-78 CNS) [µM] | TGI (SN12K1 renal) [µM] | TGI (M19-MEL melanoma) [µM] | TGI (DMS 114 small cell lung) [µM] | TGI (P388/ADR leukemia) [µM] | TGI (KM20L2 colon) [µM] | TGI (LXFL 529 NSCLC) [µM] |
| --- | --- | --- | --- | --- | --- | --- | --- | --- | --- | --- | --- |
| c1ccc2c3c(ccc2c1)-c1[nH]ncc1CCO3 | > 100 | > 100 | > 100 | > 100 | > 100 | > 79.8 | > 100 | > 82.4 | > 100 | > 95.1 | – |
| CC(C)(C)c1ccc2c(c1)OP1(Oc3c(Cl)cc(Cl)c4cccnc34)(O2)Oc2ccc(C(C)(C)C)cc2O1 | 2.61 | 18.3 | 32.4 | 18.1 | > 86.8 | 19.6 | – | 9.57 | 9.93 | 14.6 | – |
| CCCn1cc2c(=O)[nH]c(SC)nc2n1 | – | > 100 | > 100 | > 100 | > 100 | – | – | > 100 | – | – | > 100 |
| S=P1(Sc2ccccc2)Oc2ccc3ccccc3c2-c2c(ccc3ccccc23)O1 | > 100 | > 100 | > 100 | > 100 | > 100 | > 100 | > 100 | > 100 | > 100 | > 100 | – |
| C=C(/C=C/C=C(\C)CCC=C(C)C)[C@@H]1CC[C@]2([C@H](CCCO)/C(=C(/C)C=O)CC[C@]2(C)O)[C@@H]1O | – | 27.9 | 60.4 | 38.7 | 33.5 | – | – | – | – | > 100 | 33.7 |

Source: PubChem BioAssay (NCI)
